Reference: patent US5144029A, “Derivatives of 1-[3-(4-hydroxyphenyl) 1-hydroxy 1-propyl] benzene substituted in position 2 by an aminoalkyleneoxy chain, the method of preparing same and the application thereof to therapeutics” (Delalande S.A., priority 1988, dated 1992)

Test system: not listed separately
Assay: Acute toxicity (LD50) in mice, method of Litchfield and Wilcoxon
Details: mouse, in vivo, iv

Row | Compound | LD50
1 | CCOc1ccc(OC)c(C(O)CCc2ccc(O)cc2)c1OCCN1CCCCC1 (stereo not drawn) [compound 164] | 17 mg/kg
2 | COc1ccc(SC)c(OCCN2CCCCC2)c1C(O)CCc1ccc(O)cc1 (stereo not drawn) [compound 174] | 22 mg/kg

Test system: basilar artery of a rabbit (contraction induced by KCl)
Assay: Contraction of removed rabbit basilar artery in a hyperpotassic medium (calcium antagonistic activity)
Type: cell-based
Details: Oryctolagus cuniculus, KCl at 35 mmoles, read-out: IC50 (concentration which reduces by 50% the amplitude of the contraction induced by KCl)
Protocol: The protocol of this test is the following. The rabbit is anaesthetized with pentobarbital at a dose of 30 mg/kg then sacrificed by exsanguination and decapitated at the third cervical vertebra. The basilar artery is removed (1.5 cm) between the vertebral arteries and the Willis's polygon. The basilar artery is then cut in a spiral at an angle of 45°. It is fixed by means of a curved needle between an L shaped glass support and a movement sensor (Grass, type FT03). A mechanical tension of 500 mg is applied to the vessel, before letting it reach its equilibrium condition.
For a period of 1 hour, the vessel is rinsed every 20 minutes, until a stable level is obtained.
The tonic contraction following depolarization caused by KCl is dependent on the calcic movements for it is abolished by the suppression of calcium in the survival medium.
The concentrations (in nM) are measured which reduce by 50% the amplitude of the contraction induced by the KCl at 35 mmoles.

Row | Compound | IC50
3 | CCOc1ccc(OC)c(C(O)CCc2ccc(O)cc2)c1OCCN1CCCCC1 (stereo not drawn) [compound 164] | 24 nM
4 | COc1ccc(SC)c(OCCN2CCCCC2)c1C(O)CCc1ccc(O)cc1 (stereo not drawn) [compound 174] | 27 nM
5 | COc1ccc(OC2CCCCC2)c(OCCN2CCCCC2)c1C(O)CCc1ccc(O)cc1 (stereo not drawn) [compound 173] | > 100 nM
6 | CCOc1ccc(OC)c(OCCN2CCCCC2)c1C(O)CCc1ccc(O)cc1 (stereo not drawn) [compound 160] | 6 nM
7 | CCCCCCCCOc1ccc(OC)c(OCCN2CCCCC2)c1C(O)CCc1ccc(O)cc1 (stereo not drawn) [compound 156] | > 100 nM
8 | CCSc1ccc(OC)c(C(O)CCc2ccc(O)cc2)c1OCCN1CCCCC1 (stereo not drawn) [compound 175] | 31 nM
9 | COc1ccc(OCC(F)(F)F)c(OCCN2CCCCC2)c1C(O)CCc1ccc(O)cc1 (stereo not drawn) [compound 137] | > 100 nM
10 | COc1ccc(OCc2ccccc2)c(C(O)CCc2ccc(O)cc2)c1OCCN1CCCCC1 (stereo not drawn) [compound 146] | > 100 nM
11 | CCCCOc1ccc(OC)c(OCCN2CCCCC2)c1C(O)CCc1ccc(O)cc1 (stereo not drawn) [compound 150] | 100 nM
12 | COc1ccc(OCc2ccccc2)c(OCCN2CCCCC2)c1C(O)CCc1ccc(O)cc1 (stereo not drawn) [compound 168] | > 100 nM
13 | COCCOc1ccc(OC)c(C(O)CCc2ccc(O)cc2)c1OCCN1CCCCC1 (stereo not drawn) [compound 171] | > 100 nM
14 | COc1ccc(OC2CCCCC2)c(C(O)CCc2ccc(O)cc2)c1OCCN1CCCCC1 (stereo not drawn) [compound 158] | > 100 nM

Next, values leading:

Row | IC50 | Compound
15 | 10 nM | CCCOc1ccc(OC)c(OCCN2CCCCC2)c1C(O)CCc1ccc(O)cc1 (stereo not drawn) [compound 152]
16 | 13 nM | COc1ccc(OC(C)C)c(C(O)CCc2ccc(O)cc2)c1OCCN1CCCCC1 (stereo not drawn) [compound 154]
17 | 30 nM | COc1ccc(C)c(C(O)CCc2ccc(O)cc2)c1OCCN1CCCCC1 (stereo not drawn) [compound 177]
18 | 53 nM | C=CCOc1ccc(OC)c(C(O)CCc2ccc(O)cc2)c1OCCN1CCCCC1 (stereo not drawn) [compound 167]
19 | 120 nM | CCCOc1ccc(OC)c(C(O)CCc2ccc(O)cc2)c1OCCN1CCCCC1 (stereo not drawn) [compound 166]
20 | > 100 nM | COc1ccc(O)c(C(O)CCc2ccc(O)cc2)c1OCCN1CCCCC1 (stereo not drawn) [compound 148]
21 | > 100 nM | COc1ccc(O)c(OCCN2CCCCC2)c1C(O)CCc1ccc(O)cc1 (stereo not drawn) [compound 169]
